Results as given in paper PMC8958505, “Discovery of Potential Neuroprotective Agents against Paclitaxel-Induced Peripheral Neuropathy” (Journal of Medicinal Chemistry, 2022).
Structures can show the parent of a compound that is named as a salt. Where two headings read alike, the source gives them in different places.

Legend:
[1] = test system: mouse primary DRG neurons; experiment: Neurite outgrowth assay of DRG neurons (image-based HCS) against paclitaxel-induced neurotoxicity; format: cell-based; conditions: for activation at 1 µM: Mus musculus, DRG neuron; for protective efficacy against paclitaxel-induced neurotoxicity (in words): pretreated, + 50 nM paclitaxel
Protocol: All these 19 compounds were then subjected to the neurite outgrowth assay of dorsal root ganglion (DRG) neurons paired with an image-based HCS to analyze whether they had neuroprotective potential. Quantification of neurite outgrowth under different regimens is shown in Figure 3, wherein DRG neurons incubated in 50 nM paclitaxel could cause 60% reduction in neurite outgrowth compared to the control (no drug treatment). […] Taken together, CN016 is selected as a promising lead for further development.
Primary cortical or DRG cells were fixed with 4% paraformaldehyde for 15 min following compound and paclitaxel treatment. After washing with PBS, the fixed cells were permeabilized with PBS containing 0.05% Triton X-100 for 20 min and then blocked with commercial blocking buffer (#GTX30963; GeneTex, USA) at room temperature for 1 h. Subsequently, the cortical cells were stained for the extending processes and synaptic puncta by using anti-MAP2 (#MBS502140, 1:500; Mybiosource, USA) and anti-synaptophysin (#ab32127, 1:500; Abcam, UK) overnight. DRG cells were stained for the neurite and neuron nucleus by using anti-β III tubulin (#D71G9, 1:600; Cell Signaling, USA) and anti-NeuN monoclonal antibody (#MAB377, 1:400; Millipore, USA) overnight. On the second day, the samples were washed for 30 min with wash buffer and incubated with secondary antibodies (Alexa-488, 647 1:600; Thermo Fisher, USA) and 4 μg/mL Hoechst 33258 (#94403-1ML, 1:100; Merck, USA) at room temperature for 1 h. In the initial experiments of screening the potential neuroprotective compound for CIPN, ImageXpress^Micro (IXM) high-content imaging system (Molecular Devices, USA) driven by MetaXpress software was used. Images of treated cells were automatically acquired by using a 10× objective. Twenty-one images per well were taken in each of three channels (DAPI, FITC, and Cy5) to create a whole view of the entire neural network. The integrity of the neural network was evaluated using TIF images by importing them into MetaXpress software for analysis using the module for multiparameter, such as Neurite Outgrowth, Cell Scoring, and Transfluor. Furthermore, the score of synaptogenesis was analyzed in AcuityXpress software (Molecular Devices, USA).

[2] = test system: primary cortical neurons; experiment: Neurite outgrowth assay of primary cortical neurons (image-based HCS) against paclitaxel-induced neurotoxicity; format: cell-based, mouse; conditions: Mus musculus, Primary cortical neuron; test compound 1000 nM + paclitaxel 1 μM; mean ± SE; read-out: D: Neurite outgrowth (% of control) of test compound (1000 nM) + paclitaxel (1 μM)
Procedure, shortened: (§1)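 Cortical neurons from P0 C57BL/6J mouse pups pretreated with compound at 10 and 1000 nM before 1 μM paclitaxel. Cells fixed and immunostained for MAP2 (processes), synaptophysin (synaptic puncta) and Hoechst, then imaged by automated high-content microscopy at 10×. Neurite outgrowth and synaptogenesis scored from multiparameter image analysis.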

[3] = test system: mice; design: method as in PMID 28349969; conditions: cited from earlier work
[4] = test system: primary cortical neurons; experiment: Synaptogenesis assay of primary cortical neurons (image-based HCS) against paclitaxel-induced neurotoxicity; format: cell-based, mouse; conditions: Mus musculus, Primary cortical neuron; test compound 1000 nM + paclitaxel 1 μM; mean ± SE; read-out: B: Synaptogenesis (% of control) of test compound (1000 nM) + paclitaxel (1 μM)
Procedure, shortened: as §1

[5] = test system: paclitaxel-induced neuropathy in mice; design: method as in PMID 28349969; conditions: up to 25 mg/kg; cited from earlier work
[6] = test system: sciatic nerve fibers; experiment: Ultrastructure evaluation of the sciatic nerve (TEM); format: in vivo, mouse; conditions: paclitaxel 4.5 mg/kg x 4
Source text: Sciatic nerves were isolated from mice after drug treatment and behavioral tests to examine the ultrastructure of nerve fibers. […] To evaluate the integrity of myelin, we calculated the G-ratio (axon perimeter/myelin perimeter) in different treatment groups. Because the symptoms of PIPN mostly manifest with sensory impairment,[28] we roughly classified nerve fibers into larger fibers (diameter > 5 μm) and small fibers (diameter < 5 μm) depending on the type of sensory information conveyed.[29] Large fibers with greater than 5 μm diameter carry information related to proprioception, touch, and pressure. In contrast, small fibers with less than 5 μm diameter carry information related to temperature and pain.
Sciatic nerve samples from mice from each treatment group were isolated after the last time point of mouse behavioral tests. Fixation of sciatic nerves with 4% glutaraldehyde and post fixation with 1% osmium tetroxide solution at 4 °C were performed. […] Transmission electron microscopy (H7650, Hitachi) was used to observe the ultrastructure in the cross section of the sciatic nerves.

[7] = Table S2, test compound 1000 nM + paclitaxel 50 nM minus paclitaxel 50 nM, read-out: Neuroprotection rate = (A-B) ± S.E.M [%]
[8] = supplementary CSV, test compound 1000 nM, read-out: A-B (A: neurite outgrowth (% of control) of test compound (1000 nM) + paclitaxel (50 nM), B: of paclitaxel (50 nM))
[9] = Table 1, A: neurite outgrowth (% of control) of test compound 1000 nM + paclitaxel 50 nM, B: paclitaxel 50 nM alone, DRG neurons, read-out: Neuroprotection rate = (A-B)±S.E.M [%]

Row | SMILES | activation at 1 µM [1, 8] | activation at 1 µM [1, 9] | further results
1 | CCOP(=O)(CCN1CCC(Nc2cc(N3CCOCC3)nc(NCc3cn(CCCOCCC(=O)OC)nn3)n2)CC1)OCC [CN015, 3-(3-{4-[(4-{1-[2-(Diethoxy-phosphoryl)-ethyl]-piperidin-4-ylamino}-6-morpholin-4-yl-pyrimidin-2-ylamino)-methyl]-[1,2,3]triazol-1-yl}-propoxy)-propionic Acid Methyl Ester] | 3% |  | activation at 1 µM [1, 7]: 3 ± 1.11%
2 | COC(=O)CCN1CCC(Nc2cc(N3CCOCC3)nc(NCCCCCCO)n2)CC1 [CN017, Methyl 3-(4-((2-((6-Hydroxyhexyl)amino)-6-morpholinopyrimidin-4-yl)amino)piperidin-1-yl)propanoate] | 1% |  | activation at 1 µM [1, 7]: 1 ± 0.51%; protective efficacy against paclitaxel-induced neurotoxicity (in words) ([1]; DRG neurons): inactive
3 | CCOP(=O)(CCN1CCC(Nc2cc(N3CCOCC3)nc(NCc3ccc(CCO)cc3)n2)CC1)OCC [CN018, Diethyl(2-(4-((2-((4-(2-hydroxyethyl)benzyl)amino)-6-morpholinopyrimidin-4-yl)amino)piperidin-1-yl)ethyl)phosphonate] | 3% |  | activation at 1 µM [1, 7]: 3 ± 2.2%; protective efficacy against paclitaxel-induced neurotoxicity (in words) ([1]; DRG neurons): inactive
4 | O=P(O)(O)CCN1CCC(Nc2cc(N3CCOCC3)nc(NCc3ccc(CCO)cc3)n2)CC1 [CN019] | -2% |  | activation at 1 µM [1, 7]: -2 ± 1.2%; protective efficacy against paclitaxel-induced neurotoxicity (in words) ([1]; DRG neurons): inactive
5 | O=P(O)(O)CCN1CCC(Nc2cc(N3CCOCC3)nc(NCc3cn(CCO)nn3)n2)CC1 [CN020, (2-(4-((2-(((1-(2-Hydroxyethyl)-1H-1,2,3-triazol-4-yl)methyl)amino)-6-morpholinopyrimidin-4-yl)amino)piperidin-1-yl)ethyl)phosphonic Acid Hydrobromide Salt] | 8% | 8 to 11% | 
6 | O=P(O)(O)CCN1CCC(Nc2cc(N3CCOCC3)nc(NCc3cn(CCCCO)nn3)n2)CC1 [CN021, {2-[4-(2-{[1-(4-Hydroxy-butyl)-1H-[1,2,3]triazol-4-ylmethyl]-amino}-6-morpholin-4-yl-pyrimidin-4-ylamino)-piperidin-1-yl]-ethyl}-phosphonic Acid Hydrobromide Salt] | 11% | 8 to 11% | 
7 | O=P(O)(O)CCN1CCC(Nc2cc(N3CCCCC3)nc(NCc3cn(CCCO)nn3)n2)CC1 [CN022, {2-[4-(2-{[1-(3-Hydroxy-propyl)-1H-[1,2,3]triazol-4-ylmethyl]-amino}-6-piperidin-1-yl-pyrimidin-4-ylamino)-piperidin-1-yl]-ethyl}-phosphonic Acid Hydrobromide Salt] | 6% | 6 ± 0.78% | 
8 | O=P(O)(O)CCN1CCC(Nc2cc(N3CCSCC3)nc(NCc3cn(CCCO)nn3)n2)CC1 [CN023, {2-[4-(2-{[1-(3-Hydroxy-propyl)-1H-[1,2,3]triazol-4-ylmethyl]-amino}-6-thiomorpholin-4-yl-pyrimidin-4-ylamino)-piperidin-1-yl]-ethyl}-phosphonic Acid Hydrobromide Salt] | 4% | 4 ± 1.43% | 
9 | O=P(O)(O)CCN1CCC(Nc2cc(N3CCS(=O)(=O)CC3)nc(NCc3cn(CCCO)nn3)n2)CC1 [CN024, {2-[4-(6-(1,1-Dioxo-1l6-thiomorpholin-4-yl)-2-{[1-(3-hydroxy-propyl)-1H-[1,2,3]triazol-4-ylmethyl]-amino}-pyrimidin-4-ylamino)-piperidin-1-yl]-ethyl}-phosphonic Acid Hydrobromide Salt] | 7% | 7 ± 0.84% | 
10 | CC(O)Cn1cc(CNc2nc(NC3CCN(CCP(=O)(O)O)CC3)cc(N3CCOCC3)n2)nn1 (stereo not shown) [CN025, {2-[4-(2-{[1-(2-Hydroxy-propyl)-1H-[1,2,3]triazol-4-ylmethyl]-amino}-6-morpholin-4-yl-pyrimidin-4-ylamino)-piperidin-1-yl]-ethyl}-phosphonic Acid Hydrobromide Salt] | 4% | 4 ± 0.63% | 
11 | CC(O)CCn1cc(CNc2nc(NC3CCN(CCP(=O)(O)O)CC3)cc(N3CCOCC3)n2)nn1 (stereo not shown) [CN026, {2-[4-(2-{[1-(3-Hydroxy-butyl)-1H-[1,2,3]triazol-4-ylmethyl]-amino}-6-morpholin-4-yl-pyrimidin-4-ylamino)-piperidin-1-yl]-ethyl}-phosphonic Acid Hydrobromide Salt] | 11% | 11 ± 1.48% | 
12 | CC(C)(O)CCn1cc(CNc2nc(NC3CCN(CCP(=O)(O)O)CC3)cc(N3CCOCC3)n2)nn1 [CN027, {2-[4-(2-{[1-(3-Hydroxy-3-methyl-butyl)-1H-[1,2,3]triazol-4-ylmethyl]-amino}-6-morpholin-4-yl-pyrimidin-4-ylamino)-piperidin-1-yl]-ethyl}-phosphonic Acid Hydrobromide Salt] | 5% | 5 ± 0.93% | 
13 | COCCCn1cc(CNc2nc(NC3CCN(CCP(=O)(O)O)CC3)cc(N3CCOCC3)n2)nn1 [CN028, {2-[4-(2-{[1-(3-Methoxy-propyl)-1H-[1,2,3]triazol-4-ylmethyl]-amino}-6-morpholin-4-yl-pyrimidin-4-ylamino)-piperidin-1-yl]-ethyl}-phosphonic Acid Hydrobromide Salt] | -2% | -2% | 
14 | Nc1cc(N2CCCCC2)nc(N)[n+]1[O-] [Minoxidil, reference compound] |  | 15 ± 1.41% | activity at 1 µM [2]: 66 ± 3%; dose causing hypotension [3]: 50 mg/kg; dose causing tachycardia [3]: 25 mg/kg; activity at 1 µM [4]: 58 ± 8%; protective effect on paclitaxel-induced neuropathy in behavior tests [5]: no protective effect
15 | CC(=O)O[C@H]1C(=O)[C@@]2(C)[C@H]([C@H](OC(=O)c3ccccc3)[C@]3(O)C[C@H](OC(=O)[C@H](O)[C@@H](NC(=O)c4ccccc4)c4ccccc4)C(C)=C1C3(C)C)[C@]1(OC(C)=O)CO[C@@H]1C[C@@H]2O [paclitaxel, Paclitaxel] |  |  | fiber loss (myelinated fiber density) [6]: 25%; reduction in neurite outgrowth compared to the control ([1]; 50 nM paclitaxel, DRG neurons): 60%
